Read-outs that look alike come from different tables or passages of the source.

Holding throughout (assay type): cell-based
The subject of one assay is various cell-lines. Nature of the assay: In vitro cytotoxicity, cell line not named. The conditions noted are these: FIG. 3; IGP08-OMe compared with IGP08. How it is done: (§1) Samples of free tomaymycin derivative or tomaymycin derivative conjugate are added to a 96-well flat bottomed tissue culture plate and titrated using serial dilutions ranging from 1×10^−12 M to 3×10^−7 M. Antigen positive tumor cells or antigen negative tumor cells are added to the wells in such a way that there are triplicate samples for each drug concentration for each cell line. The plates are incubated at 37° C. in an atmosphere of 5% CO2 for 4 days.
At the end of the incubation period, 20 μl of the tetrazolium reagent WST-8 (2-(2-methoxy-nitrophenyl)-3-(4-nitrophenyl)-5-(2,4-disulfophenyl)-2-tetrazolium, monosodium salt) is added to each well, and the plates are returned to the incubator for 2 hours. The absorbance in each well of the plates is then measured using the Molecular Devices plate reader at 450 nm. […]
MDA-MB-231 cells were plated at 3000 cells per well in two separate 6-well plates; PC-3 and SK-MEL-28 cells were plated at 2000 cells per well in 2 separate plates. […] Cell growth is monitored and when cells in the “0” (control) wells had formed colonies but were not confluent, usually 7 days for these cell lines, the supernatant was removed by aspiration. […] Colonies in each well were counted and the number of colonies in each dosed well was divided by the number of colonies in the “0” well to give the surviving fraction. IC50 values were then calculated from the data.

In a further assay the test system is PC-3 cells. Nature of the assay: Continuous exposure clonogenic assay. The conditions noted are these: Homo sapiens. How it is done:
(§2) MDA-MB-231 cells were plated at 3000 cells per well in two separate 6-well plates; PC-3 and SK-MEL-28 cells were plated at 2000 cells per well in 2 separate plates. The test article(s) were added to give final concentrations of 0, 5×10^−13, 5×10^−12, 5×10^−11, 5×10^−10 and 5×10^−9 M per well (or similar dosage range) to each plate. For example, when cells are plated in 1 mL, and 1 mL of a 2× concentration of the test compound or conjugate is added to the appropriate wells to give the final desired concentration in 2 mls. The final solution of the test article was made in the same medium as the cell line; therefore, different dilutions of conjugate had to be made for each different cell line. The plates are placed in an incubator at 37° C. in 5% CO2. Cell growth is monitored and when cells in the “0” (control) wells had formed colonies but were not confluent, usually 7 days for these cell lines, the supernatant was removed by aspiration. The cells were washed once with PBS (Phosphate Buffer Solution) and the supernatant aspirated. To each well, 0.5 ml per well of a 0.1% crystal violet/10% formalin/PBS was added. The plates were incubated at room temperature for 10-15 minutes. The supernatant was aspirated and the wells washed 3 times with distilled H2O, and then air dried. Colonies in each well were counted and the number of colonies in each dosed well was divided by the number of colonies in the “0” well to give the surviving fraction. IC50 values were then calculated from the data.

The subject of a further assay is SK-MEL-28 cells. The assay is described as follows: Continuous exposure clonogenic assay. The following applies: Homo sapiens. On the procedure: as §2
The subject of the next assay is MDA-MB-231 cells. The assay is described as follows: Continuous exposure clonogenic assay. The conditions noted are these: Homo sapiens. On the procedure:
as §2

A further assay has as its system Ramos cells. Nature of the assay: In vitro viability assay (WST-8). On the procedure:
(§3) Samples of free tomaymycin derivative or tomaymycin derivative conjugate are added to a 96-well flat bottomed tissue culture plate and titrated using serial dilutions ranging from 1×10^−12 M to 3×10^−7 M. Antigen positive tumor cells or antigen negative tumor cells are added to the wells in such a way that there are triplicate samples for each drug concentration for each cell line. […]
[…] The absorbance in each well of the plates is then measured using the Molecular Devices plate reader at 450 nm. Surviving fraction of cells at each concentration of tomaymycin derivative or conjugate are plotted.
(§4) The cytotoxicity of the compounds and their specificity vs. the conjugates of the invention against MOLT-4, BJAB, HL60/QC, HL60/ATCC and Ramos cell lines were tested. Results are illustrated in FIGS. 1, 2, 3, 6 and 8.

In the next assay the test system is HL60/QC cells. Nature of the assay: In vitro viability assay (WST-8). The following applies: Homo sapiens. On the procedure: as §1
(§5) At the end of the incubation period, 20 μl of the tetrazolium reagent WST-8 (2-(2-methoxy-nitrophenyl)-3-(4-nitrophenyl)-5-(2,4-disulfophenyl)-2-tetrazolium, monosodium salt) is added to each well, and the plates are returned to the incubator for 2 hours. The absorbance in each well of the plates is then measured using the Molecular Devices plate reader at 450 nm. Surviving fraction of cells at each concentration of tomaymycin derivative or conjugate are plotted.
as §4

The next assay has as its system HL60/ATCC cells. The assay is described as follows: In vitro viability assay (WST-8). On the procedure:
as §3, §5, §4

Where [1] appears, read: PC-3, read-out: In vitro data (IC50) PC-3.
Setting [2] is: SK-MEL-28, read-out: In vitro data (IC50) SK-MEL-28.
The mark [3] stands for this setting: MDA-MB-231, read-out: In vitro data (IC50) MDA-MB-231.
[4] abbreviates: Homo sapiens, Ramos, read-out: In vitro data (IC50) Ramos.
Setting [5] is: Homo sapiens, HL-60, read-out: In vitro data (IC50) HL60/ATCC.
Where [6] appears, read: HL-60, read-out: In vitro data (IC50) HL60/QC.

As for `C=C1C[C@H]2C=Nc3cc(OCc4cc(CCC(=O)OC)cc(COc5cc6c(cc5OC)C(=O)N5CC(=C)C[C@H]5C=N6)c4)c(OC)cc3C(=O)N2C1` [compound 8], the “In vitro cytotoxicity potency, ester versus acid” value in the assay on various cell-lines is “higher potency”. The IC50 turned out to be 27 pM in the assay with PC-3 cells (unconjugated tomaymicine derivatives, PC-3, read-out: In vitro data (IC50) PC-3); 10 pM in the assay with SK-MEL-28 cells (unconjugated tomaymicine derivatives, SK-MEL-28, read-out: In vitro data (IC50) SK-MEL-28); 17 pM in the assay on MDA-MB-231 cells (unconjugated tomaymicine derivatives, MDA-MB-231, read-out: In vitro data (IC50) MDA-MB-231); 8 pM in the assay with Ramos cells (Homo sapiens, unconjugated tomaymicine derivatives, Ramos, read-out: In vitro data (IC50) Ramos); 1.1 pM with HL60/QC cells (HL-60, unconjugated tomaymicine derivatives, HL60/QC, read-out: In vitro data (IC50) HL60/QC); 4 pM in the assay on HL60/ATCC cells (Homo sapiens, HL-60, unconjugated tomaymicine derivatives, HL60/ATCC, read-out: In vitro data (IC50) HL60/ATCC).

On to `C/C=C1\C[C@H]2C=Nc3cc(OCc4cc(OCCCC(=O)OC)cc(COc5cc6c(cc5OC)C(=O)N5C/C(=C/C)C[C@H]5C=N6)n4)c(OC)cc3C(=O)N2C1`, for which the IC50 in the assay with PC-3 cells (setting [1]) worked out at 11 pM; in the assay with SK-MEL-28 cells (setting [2]), 8.7 pM; with MDA-MB-231 cells (setting [3]), 1.7 pM.

On to “huMy9-6—3-(2-{2-[2-(3,5-Bis-[(S)-2-eth-(E)-ylidene-7-methoxy-1,2,3,11a-tetrahydro-pyrrolo[2,1c][1,4]benzodiazepin-5-one-8-yloxymethyl]-phenoxy)-ethoxy]-ethoxy}-ethoxy)-propionyl conjugate [ex. 14]”, for which the IC50 is below 10000 pM with Ramos cells (conjugate, Ramos (Ag−) @ 2000 cells/well, 5 day exposure, WST 4.5 hours, FIG. 23, read-out: ~IC50 Ramos cells) and around 23 pM in the assay on HL60/ATCC cells (conjugate, HL60/ATCC (Ag+) @ 5000 cells/well, 7 day exposure, WST 2 hours, FIG. 23, read-out: ~IC50 HL60/ATCC cells).

For `C/C=C1\C[C@H]2C=Nc3cc(OCc4cc(C#CCCCC(=O)OC)cc(COc5cc6c(cc5OC)C(=O)N5C/C(=C/C)C[C@H]5C=N6)c4)c(OC)cc3C(=O)N2C1`, the IC50 was 27 pM in the assay with PC-3 cells (setting [1]); 15 pM in the assay on SK-MEL-28 cells (setting [2]); 12 pM in the assay with MDA-MB-231 cells (setting [3]); 1.2 pM with Ramos cells (setting [4]); 2.2 pM in the assay on HL60/ATCC cells (setting [5]).

Take `C/C=C1\C[C@H]2C=Nc3cc(OCc4cc(COc5cc6c(cc5OC)C(=O)N5C/C(=C/C)C[C@H]5C=N6)cc(OCCN(C)C(=O)CCC(=O)OC)c4)c(OC)cc3C(=O)N2C1`: the values for the IC50 in the assay on PC-3 cells (setting [1]), in the assay with SK-MEL-28 cells (setting [2]) and in the assay with MDA-MB-231 cells (setting [3]) were 500 pM, 90 pM and 9 pM, respectively.

Take `C/C=C1\C[C@H]2C=Nc3cc(OCc4cc(OCCOCCOCCOCCC(=O)OC)cc(COc5cc6c(cc5OC)C(=O)N5C/C(=C/C)C[C@H]5C=N6)n4)c(OC)cc3C(=O)N2C1`: the IC50 came out at 500 pM in the assay with PC-3 cells (setting [1]), 71 pM in the assay with SK-MEL-28 cells (setting [2]) and 8 pM in the assay with MDA-MB-231 cells (setting [3]).

`C=C1C[C@H]2C=Nc3cc(OCc4cc(COc5cc6c(cc5OC)C(=O)N5C/C(=C/C)C[C@H]5C=N6)cc(OCC(=O)OC)c4)c(OC)cc3C(=O)N2C1`: the IC50 was 1.4 pM with Ramos cells (setting [4]) and 12 pM with HL60/ATCC cells (setting [5]).

As to `C=C1C[C@H]2C=Nc3cc(OCc4cc(CCC(=O)O)cc(COc5cc6c(cc5OC)C(=O)N5CC(=C)C[C@H]5C=N6)c4)c(OC)cc3C(=O)N2C1` [compound 9, 4-(3,5-Bis-[(S)-2-methylidene-7-methoxy-1,2,3,11a-tetrahydro-pyrrolo[2,1c][1,4]benzodiazepin-5-one-8-yloxymethyl]-phenyl)-propanoic acid], the IC50 turned out to be 2700 pM in the assay with Ramos cells (setting [4]), 3500 pM in the assay with HL60/QC cells (setting [6]) and 2600 pM in the assay on HL60/ATCC cells (setting [5]).

For the compound `C/C=C1\C[C@H]2C=Nc3cc(OCc4cc(COc5cc6c(cc5OC)C(=O)N5C/C(=C/C)C[C@H]5C=N6)cc(OCCCC(=O)O)c4)c(OC)cc3C(=O)N2C1`, the IC50 in the assay on Ramos cells (setting [4]) turned out to be 580 pM; with HL60/QC cells (setting [6]), 1200 pM; in the assay on HL60/ATCC cells (setting [5]), 2000 pM.

On to `C/C=C1\C[C@H]2C=Nc3cc(OCc4cc(COc5cc6c(cc5OC)C(=O)N5C/C(=C/C)C[C@H]5C=N6)cc(OCCOCCOCCOCCC(=O)OC)c4)c(OC)cc3C(=O)N2C1`, for which the IC50 in the assay with PC-3 cells (setting [1]) came out at 7.4 pM; in the assay with SK-MEL-28 cells (setting [2]), 9.7 pM; in the assay on MDA-MB-231 cells (setting [3]), 16 pM; with HL60/ATCC cells (setting [5]) it was 12 pM.

Values taken from patent US8404678B2, “Cytotoxic agents comprising new tomaymycin derivatives and their therapeutic use” (priority 2007, dated 2013).
